Laboratory results from ChEMBL document CHEMBL4270607, “Identification of crizotinib derivatives as potent SHIP2 inhibitors for the treatment of Alzheimer's disease” (Eur J Med Chem, 2018).

Experiments:
CYP2D6 = CYP2D6 (Homo sapiens, UniProt P10635); test: Inhibition of recombinant human CYP2D6 assessed as remaining enzyme activity at 10 uM preincubated for 5 mins followed by NADPH addition measured after 20 mins by fluorescence assay relative to control; format: ADME; details: read-out: Activity
[1] = Metabolic stability in human liver microsomes assessed as parent compound remaining at 1 uM preincubated for 5 mins followed by NADPH addition measured after 30 mins by LC-MS/MS analysis; format: ADME, microsome; details: read-out: Stability
HT-22 = test: Cytotoxicity against mouse HT22 cells assessed as decrease in cell viability at 10 uM after 24 hrs by MTT assay; format: cell-based; details: ht-22, 24 h
CYP3A4 = CYP3A4 (Homo sapiens, UniProt P08684); test: Inhibition of recombinant human CYP3A4 assessed as remaining enzyme activity at 10 uM preincubated for 5 mins followed by NADPH addition measured after 20 mins by fluorescence assay relative to control; format: ADME; details: read-out: Activity
CYP2C9 = CYP2C9 (Homo sapiens, UniProt P11712); test: Inhibition of recombinant human CYP2C9 assessed as remaining enzyme activity at 10 uM preincubated for 5 mins followed by NADPH addition measured after 20 mins by fluorescence assay relative to control; format: ADME; details: read-out: Activity
CYP2C19 = CYP2C19 (Homo sapiens, UniProt P33261); test: Inhibition of recombinant human CYP2C19 assessed as remaining enzyme activity at 10 uM preincubated for 5 mins followed by NADPH addition measured after 20 mins by fluorescence assay relative to control; format: ADME; details: read-out: Activity
CYP1A2 = biological target: T1, CYP1A2 (Homo sapiens, UniProt P05177); test: Inhibition of recombinant human CYP1A2 assessed as remaining enzyme activity at 10 uM preincubated for 5 mins followed by NADPH addition measured after 20 mins by fluorescence assay relative to control; format: ADME; details: read-out: Activity
T1 sequence (P05177 whole entry): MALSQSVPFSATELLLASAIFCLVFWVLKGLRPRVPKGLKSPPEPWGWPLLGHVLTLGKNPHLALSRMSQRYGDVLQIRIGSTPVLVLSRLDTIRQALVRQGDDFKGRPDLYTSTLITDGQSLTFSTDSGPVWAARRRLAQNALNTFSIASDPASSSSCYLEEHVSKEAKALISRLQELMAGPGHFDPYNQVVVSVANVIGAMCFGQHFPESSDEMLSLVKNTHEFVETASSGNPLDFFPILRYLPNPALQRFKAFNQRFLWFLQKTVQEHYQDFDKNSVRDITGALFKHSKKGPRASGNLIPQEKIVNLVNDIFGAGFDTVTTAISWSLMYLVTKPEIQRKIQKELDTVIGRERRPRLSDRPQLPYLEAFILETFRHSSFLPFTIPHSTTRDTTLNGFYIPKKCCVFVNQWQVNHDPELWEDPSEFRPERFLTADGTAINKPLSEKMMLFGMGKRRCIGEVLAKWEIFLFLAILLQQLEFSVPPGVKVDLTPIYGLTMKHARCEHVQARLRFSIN

[2] = biological target: T2, Phosphatidylinositol 3,4,5-trisphosphate 5-phosphatase 2 (Homo sapiens) (UniProt O15357); test: Inhibition of SHIP2 (unknown origin) assessed as remaining enzyme activity at 30 uM using PtdIns(3,4,5)P3 as substrate preincubated for 20 mins followed by substrate addition measured for 50 mins by malachite green staining based assay relative to control
T2 sequence (whole entry): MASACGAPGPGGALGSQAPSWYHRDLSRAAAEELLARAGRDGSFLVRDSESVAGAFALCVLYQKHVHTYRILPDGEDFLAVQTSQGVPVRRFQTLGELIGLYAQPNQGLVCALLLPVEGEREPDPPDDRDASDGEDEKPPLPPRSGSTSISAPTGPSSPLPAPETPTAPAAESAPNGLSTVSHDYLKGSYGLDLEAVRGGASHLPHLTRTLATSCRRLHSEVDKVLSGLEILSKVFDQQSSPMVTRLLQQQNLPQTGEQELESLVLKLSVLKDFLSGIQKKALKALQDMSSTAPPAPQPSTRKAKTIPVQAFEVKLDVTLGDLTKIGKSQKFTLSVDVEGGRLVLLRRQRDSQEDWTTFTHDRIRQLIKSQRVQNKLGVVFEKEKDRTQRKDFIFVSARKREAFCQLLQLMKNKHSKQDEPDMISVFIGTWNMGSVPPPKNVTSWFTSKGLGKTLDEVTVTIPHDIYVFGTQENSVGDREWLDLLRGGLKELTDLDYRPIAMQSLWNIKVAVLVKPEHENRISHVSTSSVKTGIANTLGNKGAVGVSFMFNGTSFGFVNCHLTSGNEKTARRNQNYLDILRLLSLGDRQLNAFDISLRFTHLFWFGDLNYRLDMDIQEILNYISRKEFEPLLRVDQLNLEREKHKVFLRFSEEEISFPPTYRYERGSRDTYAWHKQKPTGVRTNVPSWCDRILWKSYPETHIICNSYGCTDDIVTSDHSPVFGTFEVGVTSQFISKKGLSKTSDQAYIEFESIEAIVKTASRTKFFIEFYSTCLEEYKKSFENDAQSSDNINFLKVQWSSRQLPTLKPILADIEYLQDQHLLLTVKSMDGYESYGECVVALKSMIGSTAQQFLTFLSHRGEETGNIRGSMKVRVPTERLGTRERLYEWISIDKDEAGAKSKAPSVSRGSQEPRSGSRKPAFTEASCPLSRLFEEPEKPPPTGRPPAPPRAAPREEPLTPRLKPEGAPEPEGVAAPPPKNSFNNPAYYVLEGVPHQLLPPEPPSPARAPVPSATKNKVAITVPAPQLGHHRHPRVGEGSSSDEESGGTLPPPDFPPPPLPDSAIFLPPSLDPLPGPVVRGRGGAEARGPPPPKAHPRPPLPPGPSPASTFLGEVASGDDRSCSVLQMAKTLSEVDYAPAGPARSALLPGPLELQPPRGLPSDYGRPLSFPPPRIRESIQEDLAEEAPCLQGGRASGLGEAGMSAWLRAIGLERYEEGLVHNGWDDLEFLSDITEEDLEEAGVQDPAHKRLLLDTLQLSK

[3] = Metabolic stability in mouse liver microsomes assessed as parent compound remaining at 1 uM preincubated for 5 mins followed by NADPH addition measured after 30 mins by LC-MS/MS analysis; format: ADME, microsome; details: read-out: Stability
[4] = Metabolic stability in rat liver microsomes assessed as parent compound remaining at 1 uM preincubated for 5 mins followed by NADPH addition measured after 30 mins by LC-MS/MS analysis; format: ADME, microsome; details: read-out: Stability
[5] = Metabolic stability in dog liver microsomes assessed as parent compound remaining at 1 uM preincubated for 5 mins followed by NADPH addition measured after 30 mins by LC-MS/MS analysis; format: ADME, Canis lupus familiaris, microsome; details: read-out: Stability

Sequence of CYP2C19 (P33261 whole entry): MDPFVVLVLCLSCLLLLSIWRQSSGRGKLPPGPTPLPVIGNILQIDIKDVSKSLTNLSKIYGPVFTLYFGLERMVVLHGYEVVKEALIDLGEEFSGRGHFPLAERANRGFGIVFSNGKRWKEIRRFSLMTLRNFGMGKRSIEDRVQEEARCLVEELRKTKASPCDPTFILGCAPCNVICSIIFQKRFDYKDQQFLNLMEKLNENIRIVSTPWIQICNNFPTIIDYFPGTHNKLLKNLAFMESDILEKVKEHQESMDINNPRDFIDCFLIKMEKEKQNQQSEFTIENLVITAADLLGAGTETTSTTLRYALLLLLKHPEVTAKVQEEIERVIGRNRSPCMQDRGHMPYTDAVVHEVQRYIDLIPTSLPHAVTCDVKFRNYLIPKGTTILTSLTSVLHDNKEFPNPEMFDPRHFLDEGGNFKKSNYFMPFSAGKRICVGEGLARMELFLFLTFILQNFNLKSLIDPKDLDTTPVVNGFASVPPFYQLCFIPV
Sequence of CYP2C9 (P11712 whole entry): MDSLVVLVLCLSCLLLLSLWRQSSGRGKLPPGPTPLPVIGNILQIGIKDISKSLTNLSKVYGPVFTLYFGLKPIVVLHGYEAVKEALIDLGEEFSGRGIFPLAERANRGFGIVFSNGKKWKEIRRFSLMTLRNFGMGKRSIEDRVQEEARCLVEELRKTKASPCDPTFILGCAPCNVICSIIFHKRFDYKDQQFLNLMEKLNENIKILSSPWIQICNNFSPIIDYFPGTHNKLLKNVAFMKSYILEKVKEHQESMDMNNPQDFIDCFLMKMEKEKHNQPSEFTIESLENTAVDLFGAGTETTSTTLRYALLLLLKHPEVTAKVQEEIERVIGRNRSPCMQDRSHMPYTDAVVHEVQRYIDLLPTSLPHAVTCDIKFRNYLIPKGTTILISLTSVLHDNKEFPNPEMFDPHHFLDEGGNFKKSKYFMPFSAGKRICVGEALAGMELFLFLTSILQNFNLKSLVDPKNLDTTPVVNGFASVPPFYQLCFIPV
Sequence of CYP3A4 (P08684 whole entry): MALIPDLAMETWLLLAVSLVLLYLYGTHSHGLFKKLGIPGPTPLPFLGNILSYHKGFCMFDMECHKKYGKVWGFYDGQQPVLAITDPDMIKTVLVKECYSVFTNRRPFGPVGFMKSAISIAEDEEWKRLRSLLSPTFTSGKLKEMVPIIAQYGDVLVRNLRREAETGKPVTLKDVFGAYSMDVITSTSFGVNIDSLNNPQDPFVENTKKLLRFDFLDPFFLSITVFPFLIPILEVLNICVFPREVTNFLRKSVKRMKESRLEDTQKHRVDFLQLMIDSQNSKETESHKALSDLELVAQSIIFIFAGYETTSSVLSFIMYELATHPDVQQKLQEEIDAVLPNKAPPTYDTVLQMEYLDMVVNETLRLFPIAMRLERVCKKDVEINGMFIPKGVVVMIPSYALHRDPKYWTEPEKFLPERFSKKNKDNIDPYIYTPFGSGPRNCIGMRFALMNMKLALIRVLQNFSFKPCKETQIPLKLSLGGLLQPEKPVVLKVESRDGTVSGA
Sequence of CYP2D6 (P10635 whole entry): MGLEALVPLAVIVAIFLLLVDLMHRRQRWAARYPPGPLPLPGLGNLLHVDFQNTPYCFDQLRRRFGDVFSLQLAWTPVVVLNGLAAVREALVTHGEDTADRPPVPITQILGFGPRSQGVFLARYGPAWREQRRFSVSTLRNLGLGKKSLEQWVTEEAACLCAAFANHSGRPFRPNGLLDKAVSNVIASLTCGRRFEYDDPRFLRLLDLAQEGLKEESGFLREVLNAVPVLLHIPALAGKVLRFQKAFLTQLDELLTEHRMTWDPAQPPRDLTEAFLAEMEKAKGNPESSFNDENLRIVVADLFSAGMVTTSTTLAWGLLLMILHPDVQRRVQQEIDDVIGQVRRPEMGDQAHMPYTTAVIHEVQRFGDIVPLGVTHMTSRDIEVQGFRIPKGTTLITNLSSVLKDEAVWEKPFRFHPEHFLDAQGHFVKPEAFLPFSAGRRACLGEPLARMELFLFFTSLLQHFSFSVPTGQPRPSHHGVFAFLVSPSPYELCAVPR

In the case of `O=C(NCc1c(F)cccc1F)c1sccc1OCc1ccc(Cl)cc1Cl`, the activity at 20 min, 10 µM (CYP2D6) was 82.7%, the remaining at 0.5 h, 1 µM [1] was 44.1% and the Activity (HT-22) was “Toxic”. The activity at 20 min, 10 µM (CYP3A4) was 20.2%, the activity at 20 min, 10 µM (CYP2C9) was 10.9% and the activity at 20 min, 10 µM (CYP2C19) was 16.4%. The activity at 20 min, 10 µM (CYP1A2) was 74.3%, the Activity [2] was 17.1% and the remaining at 0.5 h, 1 µM [3] was 6.4%. It also gave a remaining at 0.5 h, 1 µM [4] of 28.3% and a remaining at 0.5 h, 1 µM [5] of 5.7%.
For `C[C@@H](Oc1cncc(-c2cnc(N)nc2)c1)c1c(Cl)ccc(F)c1Cl`, the activity at 20 min, 10 µM (CYP2D6) was 94.4%, the remaining at 0.5 h, 1 µM [1] was 77% and the Activity (HT-22) was “Non-Toxic”. For the same molecule, the activity at 20 min, 10 µM (CYP3A4) was 80.2%, the activity at 20 min, 10 µM (CYP2C9) was 66.7% and the activity at 20 min, 10 µM (CYP2C19) was 36.4%. For the same molecule, the activity at 20 min, 10 µM (CYP1A2) was 59%, the Activity [2] was 20.2% and the remaining at 0.5 h, 1 µM [3] was 46.5%. The remaining at 0.5 h, 1 µM [4] was 56.4% and the remaining at 0.5 h, 1 µM [5] was 23.1%.
For `N#Cc1ccc(-c2cncc(OCc3ccc(Cl)cc3Cl)c2)s1`, the activity at 20 min, 10 µM (CYP2D6) was 93.1%, the remaining at 0.5 h, 1 µM [1] was 74.5% and the Activity (HT-22) was “Non-Toxic”. The activity at 20 min, 10 µM (CYP3A4) was 96.7%, the activity at 20 min, 10 µM (CYP2C9) was 97.2% and the activity at 20 min, 10 µM (CYP2C19) was 89.9%. The activity at 20 min, 10 µM (CYP1A2) was 77.6%, the Activity [2] was 19.9% and the remaining at 0.5 h, 1 µM [3] was 38.8%. It also gave a remaining at 0.5 h, 1 µM [4] of 64.3% and a remaining at 0.5 h, 1 µM [5] of 24.3%.
